Reference: ChEMBL document CHEMBL1152020, “Novel 2,5-disubstituted-1H-pyrroles with high affinity for the dopamine D3 receptor” (Bioorg Med Chem Lett, 1996)

Experiments:
[1] = molecular target: D(3) dopamine receptor (Homo sapiens, UniProt P35462); assay: Binding affinity towards human Dopamine receptor D3 expressed in CHO cells by [125I]iodosulpiride displacement.; type: cell-based
[2] = molecular target: D(2) dopamine receptor (Homo sapiens, UniProt P14416); assay: Binding affinity towards human Dopamine receptor D2 expressed in CHO cells by [125I]iodosulpiride displacement.; type: cell-based
Sequence of D(2) dopamine receptor (P14416 whole entry): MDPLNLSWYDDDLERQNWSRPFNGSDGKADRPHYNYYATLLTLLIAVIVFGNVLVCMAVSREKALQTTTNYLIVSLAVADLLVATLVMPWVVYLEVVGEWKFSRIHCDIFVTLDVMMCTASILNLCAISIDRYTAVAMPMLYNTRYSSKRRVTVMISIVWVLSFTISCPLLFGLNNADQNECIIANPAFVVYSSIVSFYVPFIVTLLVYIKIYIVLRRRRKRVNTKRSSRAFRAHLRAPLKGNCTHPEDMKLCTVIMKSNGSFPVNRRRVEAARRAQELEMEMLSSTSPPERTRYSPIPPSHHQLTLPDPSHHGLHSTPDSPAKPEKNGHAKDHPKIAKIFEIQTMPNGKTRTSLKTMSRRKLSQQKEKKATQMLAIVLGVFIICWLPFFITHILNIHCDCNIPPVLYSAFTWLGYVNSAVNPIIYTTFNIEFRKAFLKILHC

[3] = molecular target: Dopamine receptors; D2 & D3 (Homo sapiens) (UniProt P14416+P35462); assay: Selectivity at D3 compared to D2 receptors.; type: protein assay

Sequence of D(3) dopamine receptor (P35462 whole entry): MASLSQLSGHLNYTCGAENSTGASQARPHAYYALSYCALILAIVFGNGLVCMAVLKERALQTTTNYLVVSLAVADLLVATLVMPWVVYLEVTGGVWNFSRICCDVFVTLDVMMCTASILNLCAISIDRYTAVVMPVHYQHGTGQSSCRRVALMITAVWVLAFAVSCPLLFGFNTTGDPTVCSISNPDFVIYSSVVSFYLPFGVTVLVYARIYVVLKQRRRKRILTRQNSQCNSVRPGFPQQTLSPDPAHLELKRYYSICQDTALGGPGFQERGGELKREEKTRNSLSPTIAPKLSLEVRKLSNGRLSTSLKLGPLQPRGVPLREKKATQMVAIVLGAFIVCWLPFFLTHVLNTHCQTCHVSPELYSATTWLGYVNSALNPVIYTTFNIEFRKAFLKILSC

| SMILES | Ki [1] [µM] | Ki [2] [µM] | Selectivity [3] |
| --- | --- | --- | --- |
| CCN(Cc1ccccc1)Cc1ccc(-c2cc(S(=O)(=O)CC)ccc2OC)[nH]1 | 0.000316 | 0.000794 | 3 |
| CCN(CC)Cc1ccc(-c2cc(S(=O)(=O)CC)ccc2OC)[nH]1 | 0.0398 | 0.316 | 8 |
| CCS(=O)(=O)c1ccc(OC)c(-c2ccc(CN3CCOCC3)[nH]2)c1 | 0.794 | 3.16 | 4 |
| CCS(=O)(=O)c1ccc(OC)c(-c2ccc(CN3CCCC3)[nH]2)c1 | 0.0631 | 0.251 | 4 |
| CCN1CCCC1CNC(=O)c1cc(S(=O)(=O)CC)ccc1OC (stereo not given) [SULTOPRIDE] | 0.00631 | 0.00631 | – |
| CCS(=O)(=O)c1ccc(OC)c(-c2ccc(C(C)N3CCCCC3)[nH]2)c1 (stereo not given) | 0.01 | 0.316 | 30 |
| CCS(=O)(=O)c1ccc(OC)c(-c2ccc(CN3CCCCCC3)[nH]2)c1 | 0.0158 | 0.158 | 10 |
| CCS(=O)(=O)c1ccc(OC)c(-c2ccc(CN3CCCCCCC3c3ccccc3)[nH]2)c1 (stereo not given) | 0.02 | 0.316 | 15 |
| CCN1CCCC1c1ccc(-c2cc(S(=O)(=O)CC)ccc2OC)[nH]1 (stereo not given) | 0.00501 | 0.0251 | 5 |
| CCN1CCCCCC1c1ccc(-c2cc(S(=O)(=O)CC)ccc2OC)[nH]1 (stereo not given) | 0.002 | 0.00794 | 4 |
| CCS(=O)(=O)c1ccc(OC)c(-c2ccc(CN3CCCCC3c3ccccc3)[nH]2)c1 (stereo not given) | 0.00126 | 0.0126 | 10 |
| CCS(=O)(=O)c1ccc(OC)c(-c2ccc(CN3CCCCCC3c3ccccc3)[nH]2)c1 (stereo not given) | 0.00126 | 0.0398 | 30 |
| CCS(=O)(=O)c1ccc(OC)c(-c2ccc(CN3CCCCC3)[nH]2)c1 | 0.0251 | 0.158 | 6 |
| CCS(=O)(=O)c1ccc(OC)c(-c2ccc(CN3CCCC3c3ccccc3)[nH]2)c1 (stereo not given) | 0.001 | 0.0158 | 15 |
| CCS(=O)(=O)c1ccc(OC)c(-c2ccc(C(C)N3CCCC3)[nH]2)c1 (stereo not given) | 0.02 | 0.398 | 20 |
| CCS(=O)(=O)c1ccc(OC)c(-c2ccc(C(C)N3CCCCCC3)[nH]2)c1 (stereo not given) | 0.02 | 0.0794 | 4 |
| CCN1CCCCC1c1ccc(-c2cc(S(=O)(=O)CC)ccc2OC)[nH]1 (stereo not given) | 0.002 | 0.00794 | 4 |
